In article PMC5359555, “Mechanistic and structural basis of bioengineered bovine Cathelicidin-5 with optimized therapeutic activity” (Scientific Reports, 2017):
Where a SMILES comes first, the peptide text is derived from it.

Key:
[1] = system: E. coli BL21 strain; assay: Transmission electron microscopy, E. coli BL21; assay type: cell-based, Escherichia coli BL21; settings: E. coli BL21, 2 μM, 1 hour 37 °C
Method: (§1) E. coli DH5α and BL21 strains were subjected to TEM analysis. E. coli strains were cultured at 37°C in LB broth to mid-log phase and harvested by centrifugation at 5000 g for 5 minutes. The cell pellets were re-suspended in fresh LB media with an OD600 = 0.18. A peptide (Syn1) solution at a concentration of 2 μM (MIC) was added to E. coli DH5α and BL21 strains and the samples were incubated at 37°C for 1 hour. The culture was centrifuged at 5000 g for 5 minutes and the cell pellets were collected. The cell pellets were washed twice and re-suspended in 1 mL fixation buffer that contains 2% formaldehyde, 2.5% glutaryldehide in 0.1 M phosphate buffer (pH = 7.4). The fixed bacterial cells were observed under the microscope, JEM-1011 (JEOL, Tokyo, Japan).

[2] = system: RBCs; assay: Hemolytic assay (hemoglobin release); assay type: cell-based; settings: 30 μM; RBCs hematocrit ~5%, 1 h 37 °C, absorbance 540 nm, 100% = 2% Triton X-100
Method: Plasmodium falciparum strain 3D7 was cultured in RPMI-1640 supplemented with 25 mg/l L-Glutamine; HEPES, NaHCO3; 50 mg/l Hypoxanthin; Gentamicien; 10% human serum; and RBCs at 3% hematocrit in an atmosphere of 5% CO2, 5% O2, and 90% N2 at 37°C as previously described. The Plasmodium lactate dehydrogenase (pLDH) assay was performed to measure the parasitic growth inhibition as described elsewhere[49] with BMAP-28 and its analogues treatment. In brief, malstat reagent was added to a 96-well plate (100 μL in each well). A Plasmodium infected RBC mixture of 20 μL in each well was mixed thoroughly using a plate shaker. And then 10 μL of each 1 mg/ml diaphorase and Nitroblue tetrozolium (NBT) were added to each well. The solution in the 96-well plate was mixed properly until a brown color appears and the absorbance was measured at 650 nm under a plate reader (PowerWaveHT, BioTek Instruments, USA). The hemolytic assay was carried out as described earlier. Briefly, RBCs prepared from fresh blood (Hematocrit ~5%) were incubated for 1 h at 37 °C after addition of test peptides. Relative hemoglobin concentration in supernatants after centrifugation at 2000× g for 5 min was monitored by measuring the absorbance at 540 nm by the plate reader (PowerWaveHT, BioTek Instruments, USA). As positive control, 100% hemolysis was taken from samples in which 2% Triton X-100 was added.

[3] = system: B16-F1 melanoma cells; assay: MTT cell-viability assay, B16-F1 melanoma; assay type: cell-based, mouse
Method: The T-cell lymphoma (Jurkat) and B-cell lymphoma (Ramos) were cultured using RPMI-1640 medium supplemented with 10% fetal calf serum (FCS), 100 U ml^−1 penicillin and 100 μg ml^−1 streptomycin. An initial cell densities of 5 × 10^3 cells/well was uniformly maintained in a 96 well plate. The B16-F1 melanoma cells were grown in DMEM medium containing 10% FCS, 100 U ml^−1 penicillin and 100 μg ml^−1 streptomycin and 55 μM 2-mercaptoethanol. The cells were trypsinized and plated in a 96-well plate at a density of 5 × 10^3 cells/well. The cells were grown overnight at 37 °C using a 5% CO2 incubator. The cells were treated with different peptide concentration followed by cell proliferation assay. The MTT assay kit (Cayman chemicals, USA) was used to measure the cell viability at a peptide concentration varying from 2 to 15 μM (in triplicate). Fresh culture medium and cells in medium without peptide were considered as negative and positive controls for viability assay and was monitored at 24, 48 and 72 h. The Cayman MTT cell proliferation assay protocol was followed, and the absorbance were recorded at 570 nm using a microplate reader (PowerWaveHT, BioTek Instruments, USA).

[4] = system: E. coli BL21 cells; assay: Flow cytometry propidium iodide influx, E. coli BL21; assay type: cell-based, Escherichia coli BL21; settings: E. coli BL21, at peptide MIC; 30 min peptide, 10 μg ml^−1 PI
Method: The effect of peptides on the cell-membrane integrity of E. coli BL21 and DH5α and lymphoma cells was studied using the flow cytometer analysis as described elsewhere. The cells were cultured and washed three times using PBS buffer and incubated for 30 minutes with peptides at different concentration. The incubated lymphoma cells were further processed referring to the annexin V-FITC apoptosis kit. Peptide treated and untreated cells (E. coli/lymphoma) were stained with 10 μg ml^−1 propidium iodide (PI) and incubated for additional 30 min. The incubated cells were washed using PBS to remove unbound dye and flow cytometry analysis was carried out using the FACSCalibur and analyzed by CellQuest Pro Version 5.2.1 software (BD Biosciences, NJ, USA).

[5] = system: osteoclasts (RANKL-induced from MDMs); assay: RANKL-induced osteoclastogenesis; assay type: cell-based, mouse; settings: 50 ng/ml RANKL plus M-CSF, TRAP staining after 4 days
Method: (§2) The C57BL/6 mice (8 weeks old male) were generated and maintained in a pathogen-free environment as described elsewhere. All animal experiments were carried out under approval from the Animal Research Committee of the Research Institute for Microbial Diseases (Osaka University, Osaka, Japan). All experiments were performed in accordance with relevant guidelines and regulations of Osaka University, Japan. The stromal cell-free osteoclast culture was performed using M-CSF-derived macrophage (MDMs) precursors. The bone marrow cells were flushed from femurs or tibias and cultured for 6 h in α-MEM supplemented with 10% FCS. The non-adherent cells were collected and plated in a 96-well plate at a density of 2 × 10^3 cells/well with 25 ng/ml M-CSF (PeproTech, Rocky Hill, NJ). The cell cultures were rinsed with PBS after 3 days incubation, and the adherent cells were used as MDMs. The MDMs were induced to differentiate into osteoclasts in the presence of 50 ng/ml RANKL plus M-CSF. The cells were treated with different peptide concentration to investigate the effect of peptides on the osteoclastogenesis process. After 4 days, TRAP staining was performed and TRAP positive multinucleated cell numbers (>3 nuclei) were counted.

[6] = system: B16-F1 melanoma tumor; assay: In vivo B16-F1 melanoma mouse model; settings: C57BL/6 mice n = 6, subcutaneous
Method: as §2, with “The MDMs were induced to differentiate into osteoclasts in the presence of 50 ng/ml RANKL plus M-CSF. The cells were treated with different peptide concentration to investigate the effect of peptides on the osteoclastogenesis process.” left out
Healthy C57BL/6 mice (n = 6) were administered with 30 μM Syn1 peptide mixed with 1 × 10^6 B16-F1 melanoma cells in 0.1 ml of saline via subcutaneous injections. […] The growth size of tumors were monitored in every two days and the tumor volume was measured by a dial-caliper on day 14 and 20 using the formula volume = width^2 × length × 0.52.

[7] = system: E. coli DH5α strain; assay: Transmission electron microscopy, E. coli DH5α; assay type: cell-based, Escherichia coli DH5α; settings: 4 μM
Method: as §1, with “A peptide (Syn1) solution at a concentration of 2 μM (MIC) was added to E. coli DH5α and BL21 strains and the samples were incubated at 37°C for 1 hour.” left out

## CC[C@H](C)[C@H](NC(=O)[C@H](CCCCN)NC(=O)[C@H](CCCNC(=N)N)NC(=O)CNC(=O)[C@H](Cc1ccccc1)NC(=O)[C@H](CO)NC(=O)[C@H](CCCNC(=N)N)NC(=O)[C@H](Cc1ccccc1)NC(=O)CNC(=O)CN)C(=O)N[C@@H](Cc1ccccc1)C(=O)N[C@@H](CCCNC(=N)N)C(=O)N[C@@H](C)C(=O)N[C@@H](Cc1c[nH]c2ccccc12)C(=O)N[C@@H](CCCCN)C(=O)N[C@@H](CCCCN)C(=O)N[C@@H](Cc1ccc(O)cc1)C(=O)NCC(N)=O [Syn1] (H-GGFRSFGRKIFRAWKKYG-NH2; N-terminus assumed)
[1]
  TEM observation (in words): membrane disruption and cell lysis
[2]
  Hemoglobin release (%) / hemolysis: 7.2%
[3]
  concentration found to be active: ~ 30 μM
[3]; 10 μM
  anticancer activity (in words): fairly low anticancer activity
[4]
  PI influx: ~ 100%
[5]; 3 μM
  activity in RANKL-induced osteoclastogenesis (in words): significant activity
[5]; 10 μM
  activity in RANKL-induced osteoclastogenesis (in words): complete abolition
[6]; 30 μM Syn1 mixed with 1 × 10^6 B16-F1 cells in 0.1 ml saline, day 14 and 20
  tumor formation (in words): no tumor formation
[6]; 30 μM Syn1 mixed with 1 × 10^6 B16-F1 cells
  survival (in words): alive
[7]
  TEM: membrane abnormalities or disruption (in words): not observed
